The text below walks through data of patent US9580437B2, “Triazolopyrimidine compounds and uses thereof” (Novartis AG, priority 2014, dated 2017).

The target in one assay is EED (1-441)-His protein (Homo sapiens (Human), UniProt O75530). Nature of the assay: EED-H3K27Me3 peptide competition binding assay by AlphaScreen. Conditions: read-out: (a) IC50 EED Alphascreen binding Qualified. From the text:
EED-H3K27Me3 peptide competition binding assay by AlphaScreen (α-screen)
For orientation: In Alpha technology, singlet oxygen from a donor bead excites a nearby acceptor bead.

Assay [1] addresses wild type PRC2 (wtPRC2) complex (Homo sapiens (Human), UniProt O75530). Briefly: EED LC-MS assay. In kind it is biochemical. Conditions: read-out: (b) IC50 EED LC-MS Qualified. The protocol: A 6 μL solution of 3 μM of the peptide substrate H3K27Me0 (histone H3[21-44]-biotin) in reaction buffer was added to initiate each reaction. […] ELISA (H3K27 Methylation) Assay

Sequence of EED (1-441)-His protein (O75530 whole entry): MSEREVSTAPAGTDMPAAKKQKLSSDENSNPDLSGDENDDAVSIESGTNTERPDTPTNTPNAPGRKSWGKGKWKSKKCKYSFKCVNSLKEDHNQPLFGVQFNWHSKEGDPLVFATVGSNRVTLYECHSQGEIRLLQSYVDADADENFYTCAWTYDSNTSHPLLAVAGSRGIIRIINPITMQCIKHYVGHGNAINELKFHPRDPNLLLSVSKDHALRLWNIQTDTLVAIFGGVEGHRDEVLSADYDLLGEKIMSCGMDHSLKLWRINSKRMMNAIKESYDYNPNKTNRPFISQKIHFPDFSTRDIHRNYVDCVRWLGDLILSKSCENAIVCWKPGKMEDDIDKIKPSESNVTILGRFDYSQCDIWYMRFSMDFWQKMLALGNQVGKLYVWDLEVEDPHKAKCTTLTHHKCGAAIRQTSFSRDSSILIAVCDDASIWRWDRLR
Sequence of wild type PRC2 (wtPRC2) complex (O75530 whole entry): as above
Sequence of wild type PRC2 (wtPRC2) complex (Q15910 whole entry partner): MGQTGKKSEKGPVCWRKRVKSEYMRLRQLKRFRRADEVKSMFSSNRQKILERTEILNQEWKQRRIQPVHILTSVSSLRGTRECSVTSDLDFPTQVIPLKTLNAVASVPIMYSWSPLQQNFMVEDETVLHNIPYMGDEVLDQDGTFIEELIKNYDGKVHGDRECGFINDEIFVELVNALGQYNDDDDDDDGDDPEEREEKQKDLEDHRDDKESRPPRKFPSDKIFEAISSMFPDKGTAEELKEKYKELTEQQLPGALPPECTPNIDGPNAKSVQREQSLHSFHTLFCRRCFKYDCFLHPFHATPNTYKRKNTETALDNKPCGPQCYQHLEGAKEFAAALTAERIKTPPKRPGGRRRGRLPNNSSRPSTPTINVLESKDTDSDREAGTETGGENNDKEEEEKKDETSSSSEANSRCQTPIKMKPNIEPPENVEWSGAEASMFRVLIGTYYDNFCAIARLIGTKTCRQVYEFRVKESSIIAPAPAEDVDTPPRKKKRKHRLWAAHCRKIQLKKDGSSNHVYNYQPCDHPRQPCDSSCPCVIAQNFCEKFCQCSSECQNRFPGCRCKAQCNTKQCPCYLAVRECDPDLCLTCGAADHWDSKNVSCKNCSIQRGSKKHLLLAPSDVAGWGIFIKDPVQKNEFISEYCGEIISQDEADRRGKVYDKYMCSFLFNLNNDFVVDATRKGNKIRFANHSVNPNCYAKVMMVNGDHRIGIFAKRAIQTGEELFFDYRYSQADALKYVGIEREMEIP
Sequence of wild type PRC2 (wtPRC2) complex (Q15022 whole entry partner): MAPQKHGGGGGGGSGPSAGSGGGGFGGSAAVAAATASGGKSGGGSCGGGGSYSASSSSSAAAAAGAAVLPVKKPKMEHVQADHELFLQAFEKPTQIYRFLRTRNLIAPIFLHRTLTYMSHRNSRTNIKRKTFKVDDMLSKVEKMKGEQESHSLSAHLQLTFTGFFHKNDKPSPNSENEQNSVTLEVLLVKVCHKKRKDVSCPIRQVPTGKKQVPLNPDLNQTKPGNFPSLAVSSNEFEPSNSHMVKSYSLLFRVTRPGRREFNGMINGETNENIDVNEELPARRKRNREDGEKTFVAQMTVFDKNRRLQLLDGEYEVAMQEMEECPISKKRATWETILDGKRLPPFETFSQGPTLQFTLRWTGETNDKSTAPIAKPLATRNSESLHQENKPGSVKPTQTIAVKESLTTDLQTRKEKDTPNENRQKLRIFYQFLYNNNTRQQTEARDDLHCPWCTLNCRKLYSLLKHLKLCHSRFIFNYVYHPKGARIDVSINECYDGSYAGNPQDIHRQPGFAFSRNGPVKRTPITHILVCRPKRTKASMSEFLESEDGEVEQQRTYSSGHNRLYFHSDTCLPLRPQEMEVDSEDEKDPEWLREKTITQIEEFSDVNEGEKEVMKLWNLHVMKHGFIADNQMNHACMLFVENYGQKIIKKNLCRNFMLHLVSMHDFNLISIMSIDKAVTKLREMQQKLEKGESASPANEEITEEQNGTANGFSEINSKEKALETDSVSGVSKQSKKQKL

Regarding `CCOc1cc(C)c(-c2cnc(NCc3c(F)ccc4c3CCO4)n3cnnc23)cn1` [Example 196, 8-(6-ethoxy-4-methylpyridin-3-yl)-N-((5-fluoro-2,3-dihydrobenzofuran-4-yl)methyl)-[1,2,4]triazolo[4,3-c]pyrimidin-5-amine], the IC50 was 3.6 nM at EED (1-441)-His protein and 8.2 nM in assay [1].

Regarding `COCc1cc(-c2cnc(NCc3cccc4c3CCO4)n3cnnc23)cnc1C` [Example 137, N-((2,3-dihydrobenzofuran-4-yl)methyl)-8-(5-(methoxymethyl)-6-methylpyridin-3-yl)-[1,2,4]triazolo[4,3-c]pyrimidin-5-amine], the IC50 on EED (1-441)-His protein amounted to 22 nM; in assay [1], 29.6 nM.

In the case of `O=C(c1ccc(-c2cnc(NCc3cccc4c3CCO4)n3cnnc23)cn1)N1CCOCC1` [Example 68, (5-(5-(((2,3-dihydrobenzofuran-4-yl)methyl)amino)-[1,2,4]triazolo[4,3-c]pyrimidin-8-yl)pyridin-2-yl)(morpholino)methanone], the IC50 on EED (1-441)-His protein was found to be 19.7 nM; in assay [1] it was 36.7 nM.

As for `Cc1ccncc1-c1cnc(NCc2c(F)ccc3c2CCO3)n2cnnc12` [Example 118, N-((5-fluoro-2,3-dihydrobenzofuran-4-yl)methyl)-8-(4-methylpyridin-3-yl)-[1,2,4]triazolo[4,3-c]pyrimidin-5-amine], the results for the IC50 (at EED (1-441)-His protein; in assay [1]) were 10.1 nM and 18.2 nM, respectively.

For the compound `Cc1cnc(Cl)cc1-c1cnc(NCc2c(F)ccc3c2CCO3)n2cnnc12` [Example 228, 8-(2-chloro-5-methylpyridin-4-yl)-N-((5-fluoro-2,3-dihydrobenzofuran-4-yl)methyl)-[1,2,4]triazolo[4,3-c]pyrimidin-5-amine], the half-inhibitory concentration (IC50) amounted to 8.2 nM at EED (1-441)-His protein and 9 nM in assay [1].

For the compound `Cc1c(-c2cnc(NCc3c(F)ccc4c3CCO4)n3cnnc23)ccnc1F` [Example 180, N-((5-fluoro-2,3-dihydrobenzofuran-4-yl)methyl)-8-(2-fluoro-3-methylpyridin-4-yl)-[1,2,4]triazolo[4,3-c]pyrimidin-5-amine], the IC50 was found to be 7.3 nM on EED (1-441)-His protein and 7.9 nM in assay [1].

Regarding `CC(=O)N1CCN(CCc2ccc(-c3cnc(NCc4cccc5c4CCO5)n4cnnc34)cn2)CC1` [Example 108, 1-(4-(2-(5-(5-(((2,3-dihydrobenzofuran-4-yl)methyl)amino)-[1,2,4]triazolo[4,3-c]pyrimidin-8-yl)pyridin-2-yl)ethyl)piperazin-1-yl)ethanone], the IC50 at EED (1-441)-His protein came to 6.7 nM; in assay [1], 11 nM.

Take `Nc1cc(F)c(-c2cnc(NCc3cccc4c3CCO4)n3cnnc23)cn1` [Example 58, 8-(6-amino-4-fluoropyridin-3-yl)-N-((2,3-dihydrobenzofuran-4-yl)methyl)-[1,2,4]triazolo[4,3-c]pyrimidin-5-amine]: the IC50 was 6.3 nM on EED (1-441)-His protein and 13 nM in assay [1].

On to `Cc1c(-c2cnc(NCc3c(F)ccc4c3C(O)CO4)n3cnnc23)ccc[n+]1[O-]` (centres unmarked) [Example 244, 3-(5-(((5-fluoro-3-hydroxy-2,3-dihydrobenzofuran-4-yl)methyl)amino)-[1,2,4]triazolo[4,3-c]pyrimidin-8-yl)-2-methylpyridine 1-oxide], for which the figures for the IC50 (on EED (1-441)-His protein; in assay [1]) were 11.7 nM and 38.9 nM, respectively.

`CC1Cc2c(CNc3ncc(-c4ccc(CN(C)C)cc4)c4nncn34)cccc2O1` (centres unmarked) [Example 22, 8-(4-((dimethylamino)methyl)phenyl)-N-((2-methyl-2,3-dihydrobenzofuran-4-yl)methyl)-[1,2,4]triazolo[4,3-c]pyrimidin-5-amine]: the IC50 at EED (1-441)-His protein worked out at 1980 nM; in assay [1], 1820 nM.

`Fc1ccc2c(c1CNc1ncc(-c3cnccc3Cl)c3nncn13)CCO2` [Example 124, 8-(4-chloropyridin-3-yl)-N-((5-fluoro-2,3-dihydrobenzofuran-4-yl)methyl)-[1,2,4]triazolo[4,3-c]pyrimidin-5-amine]: the IC50 on EED (1-441)-His protein was found to be 10 nM; in assay [1], 15.4 nM.

As to `c1cc(CNc2ncc(-c3ccc(N4CCSCC4)nc3)c3nncn23)c2c(c1)OCC2` [Example 81, N-((2,3-dihydrobenzofuran-4-yl)methyl)-8-(6-thiomorpholinopyridin-3-yl)-[1,2,4]triazolo[4,3-c]pyrimidin-5-amine], the IC50 on EED (1-441)-His protein amounted to 14.6 nM; in assay [1], 19.1 nM.

As to `O=C(c1ccc(-c2cnc(NCc3c(F)ccc4c3CCO4)n3cnnc23)cn1)N1CCCC1` [Example 129, (5-(5-(((5-fluoro-2,3-dihydrobenzofuran-4-yl)methyl)amino)-[1,2,4]triazolo[4,3-c]pyrimidin-8-yl)pyridin-2-yl)(pyrrolidin-1-yl)methanone], the IC50 at EED (1-441)-His protein worked out at 3.9 nM; in assay [1] it was 8.4 nM.

In the case of `Cc1cc(C(=O)N(C)C)ncc1-c1cnc(NCc2c(F)ccc3c2CCO3)n2cnnc12` [Example 131, 5-(5-(((5-fluoro-2,3-dihydrobenzofuran-4-yl)methyl)amino)-[1,2,4]triazolo[4,3-c]pyrimidin-8-yl)-N,N,4-trimethylpicolinamide], the IC50 on EED (1-441)-His protein is 4 nM; in assay [1], 10.6 nM.

Turning to `CN(C)C(=O)c1ccc(-c2cnc(NCc3cccc4c3CCO4)n3cnnc23)cn1` [Example 95, 5-(5-(((2,3-dihydrobenzofuran-4-yl)methyl)amino)-[1,2,4]triazolo[4,3-c]pyrimidin-8-yl)-N,N-dimethylpicolinamide], the IC50 worked out at 5.2 nM at EED (1-441)-His protein and 12.8 nM in assay [1].

For the compound `CC(c1ccc(-c2cnc(NCc3cccc4occc34)n3cnnc23)cc1)N1CCCC1` (centres unmarked) [Example 210, N-(benzofuran-4-ylmethyl)-8-(4-(1-(pyrrolidin-1-yl)ethyl)phenyl)-[1,2,4]triazolo[4,3-c]pyrimidin-5-amine], the IC50 on EED (1-441)-His protein came to 18.5 nM; in assay [1], 21.4 nM.

As for `Cn1cc(-c2cnc(NCc3c(F)ccc4c3CCO4)n3cnnc23)c(C(F)F)n1` [Example 200, 8-(3-(difluoromethyl)-1-methyl-1H-pyrazol-4-yl)-N-((5-fluoro-2,3-dihydrobenzofuran-4-yl)methyl)-[1,2,4]triazolo[4,3-c]pyrimidin-5-amine], the values for the IC50 (on EED (1-441)-His protein; in assay [1]) were 7.5 nM and 9.5 nM, respectively.

As to `N#Cc1ccccc1-c1cnc(NCc2c(F)ccc3c2CCO3)n2cnnc12` [Example 121, 2-(5-(((5-fluoro-2,3-dihydrobenzofuran-4-yl)methyl)amino)-[1,2,4]triazolo[4,3-c]pyrimidin-8-yl)benzonitrile], the IC50 is 13.4 nM on EED (1-441)-His protein and 22.1 nM in assay [1].

For `Fc1ccc2c(c1CNc1ncc(-c3ccncc3)c3nncn13)CCO2` [Example 45, N-((5-fluoro-2,3-dihydrobenzofuran-4-yl)methyl)-8-(pyridin-4-yl)-[1,2,4]triazolo[4,3-c]pyrimidin-5-amine], the values for the half-inhibitory concentration (IC50) (at EED (1-441)-His protein; in assay [1]) were 20 nM and 32.8 nM, respectively.

`Cc1c(-c2cnc(NCc3c(F)ccc4c3CCO4)n3cnnc23)ccc[n+]1[O-]` [Example 204, 3-(5-(((5-fluoro-2,3-dihydrobenzofuran-4-yl)methyl)amino)-[1,2,4]triazolo[4,3-c]pyrimidin-8-yl)-2-methylpyridine 1-oxide]: the figures for the IC50 (at EED (1-441)-His protein; in assay [1]) were 10.6 nM and 19.3 nM, respectively.

As for `O=C(c1ccc(-c2cnc(NCc3cccc4occc34)n3cnnc23)cc1)N1CCCC1` [Example 216, (4-(5-((benzofuran-4-ylmethyl)amino)-[1,2,4]triazolo[4,3-c]pyrimidin-8-yl)phenyl)(pyrrolidin-1-yl)methanone], the figures for the IC50 (on EED (1-441)-His protein; in assay [1]) were 132 nM and 183 nM, respectively.

Turning to `CN(C)S(=O)(=O)c1ccc(-c2cnc(NCc3cccc4c3CCO4)n3cnnc23)cc1` [Example 15, 4-(5-(((2,3-dihydrobenzofuran-4-yl)methyl)amino)-[1,2,4]triazolo[4,3-c]pyrimidin-8-yl)-N,N-dimethylbenzenesulfonamide], the IC50 on EED (1-441)-His protein came out at 12.8 nM; in assay [1] it was 20.6 nM.

Take `c1cncc(-c2cnc(NCc3cccc4c3CCO4)n3cnnc23)c1` [Example 16, N-((2,3-dihydrobenzofuran-4-yl)methyl)-8-(pyridin-3-yl)-[1,2,4]triazolo[4,3-c]pyrimidin-5-amine]: the figures for the IC50 (at EED (1-441)-His protein; in assay [1]) were 10.8 nM and 24 nM, respectively.

As to `Fc1ccncc1-c1cnc(NCc2cccc3c2CCO3)n2cnnc12` [Example 85, N-((2,3-dihydrobenzofuran-4-yl)methyl)-8-(4-fluoropyridin-3-yl)-[1,2,4]triazolo[4,3-c]pyrimidin-5-amine], the IC50 at EED (1-441)-His protein stood at 8.3 nM; in assay [1], 26 nM.

`N#Cc1ccc(-c2cnc(NCc3c(F)ccc4c3CCO4)n3cnnc23)cn1` [Example 93, 5-(5-(((5-fluoro-2,3-dihydrobenzofuran-4-yl)methyl)amino)-[1,2,4]triazolo[4,3-c]pyrimidin-8-yl)picolinonitrile]: the IC50 at EED (1-441)-His protein turned out to be 7.9 nM; in assay [1] it was 12.5 nM.

On to `Fc1ccccc1-c1cnc(NCc2c(F)ccc3c2CCO3)n2cnnc12` [Example 94, N-((5-fluoro-2,3-dihydrobenzofuran-4-yl)methyl)-8-(2-fluorophenyl)-[1,2,4]triazolo[4,3-c]pyrimidin-5-amine], for which the IC50 turned out to be 11.3 nM on EED (1-441)-His protein and 18.6 nM in assay [1].

On to `Fc1ccc2c(c1CNc1ncc(-n3ccnc3)c3nncn13)CCO2` [Example 240, N-((5-fluoro-2,3-dihydrobenzofuran-4-yl)methyl)-8-(1H-imidazol-1-yl)-[1,2,4]triazolo[4,3-c]pyrimidin-5-amine], for which the IC50 at EED (1-441)-His protein is 4.9 nM; in assay [1], 14.3 nM.

In the case of `Cc1cc(-c2cnc(NCc3cccc4c3CCO4)n3cnnc23)cnc1N1CCNC(=O)C1` [Example 105, 4-(5-(5-(((2,3-dihydrobenzofuran-4-yl)methyl)amino)-[1,2,4]triazolo[4,3-c]pyrimidin-8-yl)-3-methylpyridin-2-yl)piperazin-2-one], the IC50 at EED (1-441)-His protein turned out to be 26.9 nM; in assay [1], 32.6 nM.

By IC50 is commonly meant the concentration that gives 50% inhibition.
